According to publication PMC6804243, “Small-Molecule Inhibition of UBE2T/FANCL-Mediated Ubiquitylation in the Fanconi Anemia Pathway” (ACS Chemical Biology, 2019):
Entries after “also recorded” stand apart in the source; their conditions may differ.

Experiments:
UBE2T = system: T1, UBE2T; assay: Gel-based ubiquitylation assay (UBE2T/GST-FANCLRING), blot probed for UBE2T; assay type: biochemical; details: compound 100 μM, Western blot probed for UBE2T
T1 construct: His6 (N); made in house; host or cells: E. coli Rosetta (DE3)

[1] = system: mUb-FANCD2 (UBE2T and FANCL-dependent monoubiquitylation of FANCD2); assay: Immunoblot of mUb-FANCD2 formation in U2OS cells; assay type: cell-based; details: for level of mUb-FANCD2 in response to HU: CU1 200 μM or CU2 500 μM, 8 h; for level of mUb-FANCD2 in response to HU / level of mUb-FANCD2: HU 2.5 mM; for level of mUb-FANCD2: compound 100 μM, 1 h preincubation, 24 h
Protocol: U2OS cells were treated with HU and the formation of mUb-FANCD2 in the presence of CU 1, CU2, and CU9 was evaluated relative to a DMSO control. Following a 1-h preincubation with the compounds, cells were treated with 2.5 mM of HU for 24 h. […] Accordingly, cells were treated with a higher concentration of compounds in further experiments.
Figure 3 Cell-based assays with CU1 and CU2: (a) Western blot showing that the formation of mUb-FANCD2(*), in response to HU treatment (2.5 mM, 8 h), is impaired in U2OS cells in the presence of CU1 (200 μM) or CU2 (500 μM). Ratio = mUb-FANCD2/FANCD2 (normalized to DMSO control). mUb-FANCD2 was resolved on a separate gel. PARP1 was used as a loading control for each gel, as well as to assess apoptosis. (b) Quantification of the reduction in mUb-FANCD2, in response to HU treatment (2.5 mM, 8 h) in the presence of CU1 (200 μM) or CU2 (500 μM). Mean calculated from three independent experiments. (c) Western blot showing that formation of mUb-FANCD2 (denoted by an asterisk symbol, *) in response to cisplatin treatment (10 μM) for 6, 12, and 24 h is impaired in U2OS cells in the presence of CU2 (500 μM). Ratio = mUb-FANCD2/FANCD2 (normalized to DMSO control). (d) Cell cycle analyses based upon EdU incorporation in cells treated with HU (2.5 mM, 8 h) in the presence or absence of CU1 (200 μM) or CU2 (500 μM). HU treatment was used for gating purposes. […] TEXT PRINTED IN THE PICTURE: (d) DMSO: S-phase 42.7; G1 29.2; G2-M 27.8 | (d) HU: S-phase 0.24; G1 72.4; G2-M 22.9 | (d) CU1: S-phase 43.4; G1 26.8; G2-M 29.1 | (d) CU2: S-phase 39.7; G1 31.9; G2-M 28.2 DOUBTS OF THE COPYIST ABOUT THIS PICTURE: Panel d print is small, so these digits are best readings: DMSO G2-M 27.8 (8 or 6); CU1 G1 26.8 (6 or 8); CU2 S-phase 39.7 (9 or 8); CU2 G2-M 28.2 (8 or 6) / Panels a and c: the lane ratios printed under the western blots (a: 1.0, 0.64, 0.40; c: 1.0/0.65, 1.0/0.63, 1.0/0.53) were left out because they belong to blots and the picture prints no measure for them […]
Reaction mixtures were incubated for the indicated time at 37 °C and stopped by the addition of 2X reducing SDS -PAGE sample buffer, separated on NuPAGE Novex 4 –12% Bis/Tris gradient gels (Invitrogen) and visualized by Western blotting using the indicated antibodies (Table S3).
Cell culture. U2OS cells were cultured at 37 °C in a humidified atmosphere and 5% (v/v) CO2 in Dulbecco's Modified Eagle Medium (DMEM; Sigma-Aldrich) supplemented with 10% (v/v) fetal bovine serum (FBS), 100 units/ml of penicillin, […] of streptomycin and 292 μg/mL L-glutamine.
Cell extract preparation and immunoblotting. U2OS cells were lysed in buffer containing 50 mM Tris-HCl pH 7.5, 2% SDS, 10 mM NEM, cocktail protease inhibitor (Roche) and phosphatase inhibitor cocktail followed by sonication 100 µg of extracts were boiled for 5 mins at 95 °C in 5X loading buffer and loaded onto NuPAGE Novex 4–12% Bis/Tris gradient gels
(Invitrogen), or NuPAGE Novex 3-8% Tris/Acetate gradient gels (Invitrogen) for detection of mUb-FANCD2. After separation the gels were transferred to PVDF and the membranes were blocked with Tris-buffered saline containing 0.1% (v/v) Tween-20 (TBST) and 5% (v/v) bovine serum albumin (BSA) and incubated with the indicated primary and secondary antibodies. mUb-FANCD2 intensity was quantified using Image Studio (LI-COR).
IncuCyte cell proliferation assays. 2000 U2OS cells were seeded per well in 96-well plates and treated with compounds 24 hours afterwards. After 1 hour of compound treatment, 15 µM carboplatin (Sigma-Aldrich) was added and the cells were cultured in an incubator with an IncuCyte microscopy -platform (Essen BioScience). Phase -contrast images were acquired every 6 hours for 8 days until DMSO-carboplatin treated cells reached >80% confluence. Cell proliferation was monitored as the occupied area (% confluence) of cell images over time and calculated as percentage confluence over time. Cell confluency […]

UBE1 = system: T2, UBE1; assay: Gel-based ubiquitylation assay (UBE2T/GST-FANCLRING), autoubiquitylation of UBE1; assay type: biochemical; details: compound 100 μM; Western blot probed for biotin
T2 construct: purchased Boston Biochem

UBE2T / GST-FANCLRING = system: T3, UBE2T / GST-FANCLRING; assay: Gel-based ubiquitylation assay, E2 = UBE2T, E3 = GST-FANCLRING; assay type: biochemical; details: compound 100 μM, 30 min at 37 °C, Western blot
T3 construct: the RING domain (residues 275–375) of the E3 FANCL (FANCLRING); His6 (N); made in house; host or cells: E. coli Rosetta (DE3)

Row | Compound | ubiquitylation of UBE2T (UBE2T) | level of mUb-FANCD2 in response to HU [1] | level of mUb-FANCD2 [1] | autoubiquitylation of UBE1 (UBE1) | ubiquitylation of GST-FANCLRING (mUb-GST-FANCLRING band) (UBE2T / GST-FANCLRING) | ubiquitylation of GST-FANCLRING (mUb-GST-FANCLRING band) (UBE2T / GST-FANCLRING; listed as CU 1) | ubiquitylation of UBE2T (UBE2T; listed as 2) | level of mUb-FANCD2 in response to cisplatin ([1]; CU2 500 μM, cisplatin 10 μM for 6, 12 and 24 h) | ubiquitylation of UBE2T (UBE2T; listed as 9) | ubiquitylation of UBE2T (UBE2T; listed as 12)
1 | NCCN1C(=O)CC[C@H]2CN(Cc3cccc(-c4ccco4)c3)CC[C@H]21 [CU1] | did not affect ubiquitylation of either UBE2T or UBE1; also recorded: unaffected | reduced the level of mUb-FANCD2 | no significant decrease in the level of mUb-FANCD2 | did not affect ubiquitylation of either UBE2T or UBE1 | no ubiquitylation of FANCLRING was observed; also recorded: inhibit the ubiquitylation of GST-FANCLRING | completely inhibited the ubiquitylation of GST-FANCLRING | – | – | – | –
2 | CCN1CCN(c2cc(C)nc3nc(CN4CCCCC4C)nn23)CC1 (stereo not shown) [CU2] | did not affect ubiquitylation of either UBE2T or UBE1 | reduced the level of mUb-FANCD2 | no significant decrease in the level of mUb-FANCD2 | did not affect ubiquitylation of either UBE2T or UBE1 | no ubiquitylation of FANCLRING was observed; also recorded: inhibit the ubiquitylation of GST-FANCLRING; also recorded: completely inhibited the ubiquitylation of GST-FANCLRING | – | unaffected | reduced the level of mUb-FANCD2 | – | –
3 | Cc1nnc(N(C)CC2CCN(CC(C)O)CC2)c(C#N)c1C (stereo not shown) [CU9] | did not affect ubiquitylation of either UBE2T or UBE1 | – | no significant decrease in the level of mUb-FANCD2 | did not affect ubiquitylation of either UBE2T or UBE1 | no ubiquitylation of FANCLRING was observed; also recorded: inhibit the ubiquitylation of GST-FANCLRING; also recorded: completely inhibited the ubiquitylation of GST-FANCLRING | – | – | – | unaffected | –
4 | NC(=O)[C@@H]1CCCN1C(=O)c1cc(-n2cccc2)ccc1Cl [CU12] | prevented the ubiquitylation of UBE2T | – | – | somewhat impaired the autoubiquitylation of UBE1 | no ubiquitylation of FANCLRING was observed | – | – | – | – | essentially completely inhibited
